The text below walks through data of PMC3397457, “Preclinical Evaluation of Anticancer Efficacy and Pharmacological Properties of FBA-TPQ, a Novel Synthetic Makaluvamine Analog” (Marine Drugs, 2012).

This data set is described as follows: Plasma protein binding by micro-ultrafiltration. It counts as in vitro ADME. To be noted: pooled mouse plasma, 37 °C 1 h, read-out: bound to plasma proteins (converted). As for the experimental part: To determine the extent to which FBA-TPQ is bound by plasma proteins, pooled plasma samples were examined for their capacity to bind the compound at concentrations of 0.5 μM and 5 μM. FBA-TPQ was considerably bound to proteins in mouse plasma, with 72.32% ± 2.53%; and 77.78% ± 1.17% of the compound being bound to plasma proteins at concentrations of 0.5 μM and 5.0 μM, respectively. Extensive binding of a candidate compound to plasma proteins can impair its biodistribution and may therefore impact its therapeutic efficacy. However, compounds that are highly bound to proteins display longer half-lives, durations of action, and higher volumes of distribution.
The extent of binding to mouse plasma proteins by FBA-TPQ was determined using a micro-ultrafiltration system as previously described. FBA-TPQ was dissolved in methanol and added to pooled mouse plasma to yield final concentrations of 0.5 µM and 5.0 µM. Control solutions were prepared in methanol to account for non-specific binding of FBA-TPQ to the filter membranes. Duplicate preparations of each concentration were incubated at 37 °C for 1 h, before being placed into the sample reservoirs of Amicon Centrifree® ultrafiltration tubes (30 kDa exclusion; Millipore).

On to `O=C1C(NCc2ccc(F)cc2)=CC2=NCCc3c[nH]c1c32` [FBA-TPQ, 7-(4-fluorobenzylamino)-1,3,4,8-tetrahydropyrrolo[4,3,2-de]quinolin-8(1H)-one], for which the fraction unbound at 1 h, 0.5 µM (0.5 μM) is 0.277. Also, the fraction unbound at 1 h, 5 µM (5.0 μM) was 0.222.
